Experimental data published in paper PMC6130198 (ACS chemical biology, 2018).

Legend:
Flt3-ITD = assay: Z'-LYTE in vitro kinase assay; type: biochemical; settings: stated in words only
Hck = Hck (Homo sapiens, UniProt P08631); assay: Z'-LYTE in vitro kinase assay; type: biochemical; settings: data not shown
Fgr = Fgr (Homo sapiens, UniProt P09769); assay: Z'-LYTE in vitro kinase assay; type: biochemical; settings: data not shown
[1] = molecular target: other myeloid Src-family kinases; assay: In vitro kinase assay; type: biochemical; settings: data not shown
Syk = Syk (Homo sapiens, UniProt P43405); assay: Z'-LYTE in vitro kinase assay; type: biochemical; settings: data not shown
MV4–11 AML cells = assay: MV4–11 AML cell xenograft model in NSG mice; settings: 10 mg/kg once daily oral gavage, three weeks
Fes = Fes (Homo sapiens, UniProt P07332); assay: Z'-LYTE in vitro kinase assay; type: biochemical; settings: data not shown
Sequence of Fes (P07332 whole entry): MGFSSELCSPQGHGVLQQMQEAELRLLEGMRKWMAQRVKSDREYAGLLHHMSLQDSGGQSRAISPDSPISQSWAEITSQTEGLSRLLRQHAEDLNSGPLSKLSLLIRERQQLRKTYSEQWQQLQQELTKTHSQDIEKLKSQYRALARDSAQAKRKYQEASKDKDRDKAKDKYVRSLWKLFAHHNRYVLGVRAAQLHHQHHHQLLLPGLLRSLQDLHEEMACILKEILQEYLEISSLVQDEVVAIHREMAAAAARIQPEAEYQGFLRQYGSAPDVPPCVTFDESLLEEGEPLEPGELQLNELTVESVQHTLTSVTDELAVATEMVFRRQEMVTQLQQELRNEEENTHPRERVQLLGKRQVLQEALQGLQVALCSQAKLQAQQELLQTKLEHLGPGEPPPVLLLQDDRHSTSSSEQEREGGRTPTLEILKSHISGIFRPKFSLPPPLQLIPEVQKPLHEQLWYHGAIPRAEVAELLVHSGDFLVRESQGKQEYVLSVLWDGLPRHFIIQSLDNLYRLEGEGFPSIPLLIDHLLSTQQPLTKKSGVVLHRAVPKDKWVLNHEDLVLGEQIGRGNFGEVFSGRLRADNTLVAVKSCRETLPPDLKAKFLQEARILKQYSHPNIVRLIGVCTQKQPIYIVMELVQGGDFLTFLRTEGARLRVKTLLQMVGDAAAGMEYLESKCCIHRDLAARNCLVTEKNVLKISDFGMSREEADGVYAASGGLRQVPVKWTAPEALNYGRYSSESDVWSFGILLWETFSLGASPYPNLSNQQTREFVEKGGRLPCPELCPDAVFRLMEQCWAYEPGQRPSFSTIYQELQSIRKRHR

Sequence of Fgr (P09769 whole entry): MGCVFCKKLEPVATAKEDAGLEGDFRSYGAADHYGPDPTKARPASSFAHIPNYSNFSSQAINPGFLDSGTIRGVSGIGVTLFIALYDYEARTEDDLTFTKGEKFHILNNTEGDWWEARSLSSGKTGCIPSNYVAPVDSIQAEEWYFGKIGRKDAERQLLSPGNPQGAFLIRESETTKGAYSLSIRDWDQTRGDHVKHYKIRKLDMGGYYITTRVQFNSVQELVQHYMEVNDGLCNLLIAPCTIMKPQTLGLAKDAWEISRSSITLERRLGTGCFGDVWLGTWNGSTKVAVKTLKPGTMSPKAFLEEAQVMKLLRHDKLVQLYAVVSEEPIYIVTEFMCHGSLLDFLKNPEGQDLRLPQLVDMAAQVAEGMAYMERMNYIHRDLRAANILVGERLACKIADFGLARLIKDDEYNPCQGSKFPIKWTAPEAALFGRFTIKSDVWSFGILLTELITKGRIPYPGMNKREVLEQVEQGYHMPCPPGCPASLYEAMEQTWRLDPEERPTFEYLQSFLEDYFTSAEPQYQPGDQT
Sequence of Hck (P08631 whole entry): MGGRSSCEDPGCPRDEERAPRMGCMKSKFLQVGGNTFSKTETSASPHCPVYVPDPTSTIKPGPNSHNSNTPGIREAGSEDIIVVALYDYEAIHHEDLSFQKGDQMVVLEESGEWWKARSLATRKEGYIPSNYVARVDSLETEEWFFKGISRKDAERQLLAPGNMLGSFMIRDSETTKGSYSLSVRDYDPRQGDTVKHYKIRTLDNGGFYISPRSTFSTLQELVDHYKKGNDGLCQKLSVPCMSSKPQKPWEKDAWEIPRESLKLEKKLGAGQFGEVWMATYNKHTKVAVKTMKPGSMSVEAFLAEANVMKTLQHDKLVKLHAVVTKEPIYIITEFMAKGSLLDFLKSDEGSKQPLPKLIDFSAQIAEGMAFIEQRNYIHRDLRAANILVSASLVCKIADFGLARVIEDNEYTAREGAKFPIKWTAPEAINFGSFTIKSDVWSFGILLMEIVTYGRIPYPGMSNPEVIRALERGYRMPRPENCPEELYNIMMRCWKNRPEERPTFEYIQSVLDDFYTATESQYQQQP

CNC(=O)c1cc(Oc2ccc(NC(=O)Nc3ccc(Cl)c(C(F)(F)F)c3)cc2)ccn1 [sorafenib]
inhibition of Flt3-ITD kinase activity in vitro (Flt3-ITD): nM inhibitor
inhibition of kinase in vitro (Hck): does not inhibit
inhibition of kinase in vitro (Fgr): does not inhibit
IC50 [1]: > 100 µM
inhibition of kinase in vitro (Syk): does not inhibit
MV4–11 cells in bone marrow thin sections (human CD45 immunohistochemistry) (MV4–11 AML cells): still stained strongly for MV4–11 cells
MV4–11 cells in spleen thin sections (human CD45 immunohistochemistry) (MV4–11 AML cells): still stained strongly for MV4–11 cells
effect on leukemic cells in the peripheral blood (MV4–11 AML cells; flow cytometry): significant reduction
effect on spleen engraftment of MV4–11 cells (MV4–11 AML cells; flow cytometry): no effect
reduction of bone marrow engraftment of MV4–11 cells (MV4–11 AML cells; flow cytometry): no effect
inhibition of kinase in vitro (Fes): does not inhibit

CC(C)(C)c1cc(NC(=O)Nc2ccc(-c3cn4c(n3)sc3cc(OCCN5CCOCC5)ccc34)cc2)no1 [quizartinib]
inhibition of kinase in vitro (Hck): does not inhibit
inhibition of kinase in vitro (Fgr): does not inhibit
inhibition of kinase in vitro (Syk): does not inhibit
inhibition of kinase in vitro (Fes): does not inhibit

CCN(CC)CCNC(=O)c1c(C)[nH]c(/C=C2\C(=O)Nc3ccc(F)cc32)c1C [sunitinib]
inhibition of kinase in vitro (Hck): does not inhibit
inhibition of kinase in vitro (Fgr): does not inhibit

COc1cc2c(N3CCN(C(=O)Nc4ccc(OC(C)C)cc4)CC3)ncnc2cc1OCCCN1CCCCC1 [tandutinib]
inhibition of kinase in vitro (Hck): does not inhibit
inhibition of kinase in vitro (Fgr): does not inhibit
inhibition of kinase in vitro (Syk): does not inhibit
inhibition of kinase in vitro (Fes): does not inhibit
